Laboratory results reported in ChEMBL document CHEMBL4184238, “Synthesis and biological evaluation of a series of novel pyridinecarboxamides as potential multi-receptor antipsychotic drugs” (Bioorg Med Chem Lett, 2018).
Calls of active or inactive are those of the source. The rule behind the calls is not given here.

Columns and labels:
[1] = Stability in human liver microsomes assessed as parent compound remaining level at 2 uM in presence of NADPH incubated for 30 mins by LC-MS/MS method; format: ADME, microsome; conditions: read-out: Stability
[2] = target: T1, 5-hydroxytryptamine receptor 1A (Homo sapiens, UniProt P08908); experiment: Agonistic activity at human 5-HT1A receptor measured after 60 mins by Ultra Lance cAMP assay; format: functional
T1 sequence (P08908 whole entry): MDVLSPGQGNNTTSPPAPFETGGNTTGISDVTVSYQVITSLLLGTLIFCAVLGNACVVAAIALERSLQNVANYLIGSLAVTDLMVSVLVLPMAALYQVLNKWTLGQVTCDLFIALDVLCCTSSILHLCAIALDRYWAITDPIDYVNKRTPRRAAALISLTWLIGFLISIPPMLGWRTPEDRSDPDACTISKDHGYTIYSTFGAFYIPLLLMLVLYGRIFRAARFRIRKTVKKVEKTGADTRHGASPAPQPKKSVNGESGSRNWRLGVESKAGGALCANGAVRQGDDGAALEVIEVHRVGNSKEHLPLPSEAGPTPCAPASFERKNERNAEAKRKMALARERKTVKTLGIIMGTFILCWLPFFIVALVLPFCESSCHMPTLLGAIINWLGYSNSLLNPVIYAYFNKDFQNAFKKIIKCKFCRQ

[3] = target: 5-hydroxytryptamine receptor 2A (Homo sapiens, UniProt P28223); experiment: Antagonistic activity at human 5-HT2A receptor assessed as calcium flux after 10 mins by FLIPR assay; format: functional
[4] = target: D(2) dopamine receptor (Homo sapiens, UniProt P14416); experiment: Antagonistic activity at human dopamine D2 receptor measured after 60 mins by Lance Ultra cAMP assay; format: functional
[5] = target: T2, Alpha-1A adrenergic receptor (Homo sapiens, UniProt P35348); experiment: Antagonistic activity at alpha-1A adrenergic receptor (unknown origin) after 10 mins by FLIPR assay; format: functional
T2 sequence (P35348 whole entry): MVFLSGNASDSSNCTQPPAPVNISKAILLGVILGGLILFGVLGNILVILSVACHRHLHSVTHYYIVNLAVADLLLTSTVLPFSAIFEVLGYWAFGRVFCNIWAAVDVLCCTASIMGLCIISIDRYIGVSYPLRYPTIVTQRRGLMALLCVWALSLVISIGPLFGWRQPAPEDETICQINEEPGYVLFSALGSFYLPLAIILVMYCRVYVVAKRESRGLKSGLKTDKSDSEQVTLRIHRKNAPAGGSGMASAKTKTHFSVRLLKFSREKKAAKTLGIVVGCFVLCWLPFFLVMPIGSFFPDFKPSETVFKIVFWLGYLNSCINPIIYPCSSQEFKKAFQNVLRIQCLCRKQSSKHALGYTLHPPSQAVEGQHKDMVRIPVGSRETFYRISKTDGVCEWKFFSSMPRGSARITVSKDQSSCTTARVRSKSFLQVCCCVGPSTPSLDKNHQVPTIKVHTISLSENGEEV

[6] = target: T3, 5-hydroxytryptamine receptor 2C (Homo sapiens, UniProt P28335); experiment: Antagonistic activity at 5-HT2c receptor (unknown origin) after 10 mins by FLIPR assay; format: functional
T3 sequence (P28335 whole entry): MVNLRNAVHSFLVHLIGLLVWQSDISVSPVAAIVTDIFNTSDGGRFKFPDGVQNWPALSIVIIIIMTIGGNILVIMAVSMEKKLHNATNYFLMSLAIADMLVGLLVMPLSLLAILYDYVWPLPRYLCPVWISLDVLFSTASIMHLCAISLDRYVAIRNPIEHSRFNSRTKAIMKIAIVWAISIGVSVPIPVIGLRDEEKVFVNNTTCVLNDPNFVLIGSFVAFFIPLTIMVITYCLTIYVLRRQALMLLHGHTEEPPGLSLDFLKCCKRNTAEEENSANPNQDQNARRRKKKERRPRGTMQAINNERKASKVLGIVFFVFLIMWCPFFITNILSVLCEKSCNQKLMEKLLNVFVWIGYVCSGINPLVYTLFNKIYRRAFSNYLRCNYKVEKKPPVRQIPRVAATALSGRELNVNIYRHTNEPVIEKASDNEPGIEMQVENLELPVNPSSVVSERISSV

[7] = target: Histamine H1 receptor (Homo sapiens, UniProt P35367); experiment: Antagonistic activity at histamine 1 receptor (unknown origin) after 10 mins by FLIPR assay; format: functional
[8] = tested on: Mus musculus; experiment: Antipsychotic-like activity in ICR mouse assessed as inhibition of PCP-induced hyperlocomotion at 3 mg/kg, ig followed by animal habituation for 10 mins before 60 mins measurement period; format: functional, organism-based
[9] = tested on: Mus musculus; experiment: Antipsychotic-like activity in ICR mouse assessed as inhibition of PCP-induced hyperlocomotion at 0.3 to 3 mg/kg, ig followed by animal habituation for 10 mins before 60 mins measurement period; format: functional, organism-based

Sequence of 5-hydroxytryptamine receptor 2A (P28223 whole entry): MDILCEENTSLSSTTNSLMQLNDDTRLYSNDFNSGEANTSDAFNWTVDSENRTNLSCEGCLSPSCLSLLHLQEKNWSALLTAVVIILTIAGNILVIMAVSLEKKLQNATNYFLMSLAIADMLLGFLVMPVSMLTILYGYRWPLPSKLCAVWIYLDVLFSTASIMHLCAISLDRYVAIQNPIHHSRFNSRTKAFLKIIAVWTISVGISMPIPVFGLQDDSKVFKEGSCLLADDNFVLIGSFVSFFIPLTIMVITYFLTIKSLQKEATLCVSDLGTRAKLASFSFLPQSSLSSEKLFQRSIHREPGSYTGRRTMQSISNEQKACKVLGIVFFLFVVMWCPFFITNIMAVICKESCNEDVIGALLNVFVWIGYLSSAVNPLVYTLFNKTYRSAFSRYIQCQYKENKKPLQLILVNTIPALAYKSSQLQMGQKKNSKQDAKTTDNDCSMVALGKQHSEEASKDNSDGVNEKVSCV
Sequence of D(2) dopamine receptor (P14416 whole entry): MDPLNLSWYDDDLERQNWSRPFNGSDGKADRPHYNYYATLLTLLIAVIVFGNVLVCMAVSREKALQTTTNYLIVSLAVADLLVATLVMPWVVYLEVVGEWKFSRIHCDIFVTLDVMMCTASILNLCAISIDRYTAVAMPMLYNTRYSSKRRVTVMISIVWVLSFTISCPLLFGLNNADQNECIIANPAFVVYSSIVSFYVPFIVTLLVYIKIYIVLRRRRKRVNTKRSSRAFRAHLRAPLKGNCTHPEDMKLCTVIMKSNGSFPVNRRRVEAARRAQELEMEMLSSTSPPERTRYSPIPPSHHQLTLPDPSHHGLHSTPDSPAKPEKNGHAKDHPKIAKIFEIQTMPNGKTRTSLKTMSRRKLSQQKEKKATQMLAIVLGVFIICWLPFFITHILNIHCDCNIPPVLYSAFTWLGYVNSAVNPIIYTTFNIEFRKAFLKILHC
Sequence of Histamine H1 receptor (P35367 whole entry): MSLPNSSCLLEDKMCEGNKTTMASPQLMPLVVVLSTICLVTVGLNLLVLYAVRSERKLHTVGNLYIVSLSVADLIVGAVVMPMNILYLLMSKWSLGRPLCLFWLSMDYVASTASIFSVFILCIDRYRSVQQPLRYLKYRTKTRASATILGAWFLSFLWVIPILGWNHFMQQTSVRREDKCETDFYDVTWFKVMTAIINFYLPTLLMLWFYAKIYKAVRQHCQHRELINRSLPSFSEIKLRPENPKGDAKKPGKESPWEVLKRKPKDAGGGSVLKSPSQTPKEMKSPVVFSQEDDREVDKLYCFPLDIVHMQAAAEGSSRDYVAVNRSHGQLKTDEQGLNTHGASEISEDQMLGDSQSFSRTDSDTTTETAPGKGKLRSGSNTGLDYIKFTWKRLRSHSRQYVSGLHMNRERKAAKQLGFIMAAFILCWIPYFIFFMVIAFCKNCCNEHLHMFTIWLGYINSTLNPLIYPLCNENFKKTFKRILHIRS

SMILES	remaining at 0.5 h, 2 µM [1] [%]	EC50 [2] [nM]	IC50 [3] [nM]	IC50 [4] [nM]	IC50 [5] [nM]	IC50 [6] [nM]	IC50 [7] [nM]	Activity [8]	Activity [9]
CNC(=O)c1cccc(OCCCCN2CCN(c3nsc4ccccc34)CC2)c1	25	–	–	–	–	–	–	–	–
CNC(=O)c1cc(OCCCCN2CCN(c3cccc4sc(F)cc34)CC2)ccn1	–	0.7	64.9	8	–	–	–	–	–
CNC(=O)c1cccc(OCCCCN2CCC(c3noc4cc(F)ccc34)CC2)n1	–	> 100000	134	9.3	–	–	–	–	–
CCNC(=O)c1ccnc(OCCCCN2CCC(c3noc4cc(F)ccc34)CC2)c1	–	> 100000	67.5	65.5	–	–	–	–	–
O=C(NC1CC1)c1ccnc(OCCCCN2CCC(c3noc4cc(F)ccc34)CC2)c1	–	> 100000	53.9	51.7	–	–	–	–	–
CNC(=O)c1cc(OCCCCN2CCN(c3nsc4ccccc34)CC2)ccn1	65	2.2	113	11.4	71	70	923	–	–
CCNC(=O)c1cc(OCCCCN2CCC(c3noc4cc(F)ccc34)CC2)ccn1	–	17.6	95.5	37.6	–	–	–	–	–
NC(=O)c1cc(OCCCCN2CCN(c3nsc4ccccc34)CC2)ccn1	–	16.5	523	42.6	–	–	–	–	–
O=C(NC1CC1)c1cc(OCCCCN2CCC(c3noc4cc(F)ccc34)CC2)ccn1	–	28.1	167	53.5	–	–	–	–	–
O=C(NC1CC1)c1cc(OCCCCN2CCN(c3nsc4ccccc34)CC2)ccn1	–	6.2	324	65.2	–	–	–	–	–
O=C(NC1CC1)c1cncc(OCCCCN2CCC(c3noc4cc(F)ccc34)CC2)c1	–	> 100000	89.9	42.5	–	–	–	–	–
CNC(=O)c1cccc(OCCCCN2CCN(c3cccc(Cl)c3Cl)CC2)n1	–	23.6	910	51.1	–	–	–	–	–
CNC(=O)c1cc(OCCCCN2CCC(c3noc4cc(F)ccc34)CC2)ccn1	98	9	247	59.8	11	63	4420	–	–
CNC(=O)c1cccc(OCCCCN2CCN(c3ccc4ccsc4c3)CC2)n1	–	117	1280	412	–	–	–	–	–
CCNC(=O)c1cncc(OCCCCN2CCC(c3noc4cc(F)ccc34)CC2)c1	–	> 100000	94.2	59	–	–	–	–	–
CNC(=O)c1cccc(OCCCCN2CCC(c3noc4cc(F)ccc34)CC2)c1	97	–	–	–	–	–	–	–	–
CNC(=O)c1cncc(OCCCCN2CCC(c3noc4cc(F)ccc34)CC2)c1	–	> 100000	83.2	123	–	–	–	–	–
CNC(=O)c1cccc(OCCCCN2CCN(c3cccc4sccc34)CC2)n1	–	11.3	106	86.1	–	–	–	–	–
CNC(=O)c1cc(OCCCCN2CCN(c3cccc(Cl)c3Cl)CC2)ccn1	–	0.9	476	26.5	–	–	–	–	–
CNC(=O)c1ccnc(OCCCCN2CCC(c3noc4cc(F)ccc34)CC2)c1	–	> 100000	62.4	299	–	–	–	–	–
CNC(=O)c1cc(OCCCCN2CCN(c3cccc4sccc34)CC2)ccn1	65	1.2	154	24	164	346	418	Active	Dose-dependent effect
O=C1CCc2ccc(OCCCCN3CCN(c4cccc(Cl)c4Cl)CC3)cc2N1	–	–	–	–	–	–	–	Active	–
